What was measured:
[1] = given along with vortioxetine (Fig. 4)
[2] = cited from earlier work
[3] = cocktail with vortioxetine (Fig. 4)

SMILES | effect of vortioxetine on the pharmacokinetics of the co-administered drug [1] | further results
CC(=O)Oc1ccccc1C(=O)O [aspirin] | No effect | 
Cn1c(=O)c2c(ncn2C)n(C)c1=O [caffeine] | No effect | 
COc1ccc2c(c1)[C@]13CCCC[C@@H]1[C@H](C2)N(C)CC3 [dextromethorphan] |  | AUC(0–inf), 90% CI lower limit (with vs without vortioxetine) [2, 3]: 58%; C max, 90% CI lower limit (with vs without vortioxetine) [2, 3]: 68%
CN1C(=O)CN=C(c2ccccc2)c2cc(Cl)ccc21 [diazepam] | No effect | 
CCO [ethanol] | No effect | 
C#C[C@]1(O)CC[C@H]2[C@@H]3CCc4cc(O)ccc4[C@H]3CC[C@@]21C [ethinyl estradiol] | No effect | 
C#C[C@]1(O)CC[C@H]2[C@@H]3CCC4=CC(=O)CC[C@@H]4[C@H]3CC[C@@]21CC [levonorgestrel] | No effect | 
O=C([O-])[O-].[Li+].[Li+] [lithium] | No effect | 
Cc1ncc2n1-c1ccc(Cl)cc1C(c1ccccc1F)=NC2 [midazolam] | No effect | 
COc1ccc2[nH]c([S+]([O-])Cc3ncc(C)c(OC)c3C)nc2c1 (stereo not shown) [omeprazole] | no apparent effect | C max, upper limit of the 90% CI (with vs without vortioxetine) ([2]; multiple doses of vortioxetine (Fig. 4)): 130%; 90% CI for AUC(0–inf) (with vs without vortioxetine) ([2]; multiple doses of vortioxetine, within limits): 80–125%

Source: publication PMC5973995 (Clinical Pharmacokinetics, 2017)
